Measurements taken from patent US20220378761A1, “PAPD5 Inhibition As A Treatment For Dyskeratosis Congenita, Aplastic Anemia And Myelodysplastic Syndrome Caused By Reduced Telomerase RNA Levels” (The Regents of The University of Colorado, A Body Corporate, priority 2019, published 2022).

How the values were obtained:
HeLa cells = experiment: Toxicity in RG7834-treated HeLa cells; type: cell-based, Homo sapiens; conditions: duration of the experiments
PAPD5 = biological target: T1, PAPD5 (Homo sapiens, UniProt Q8NDF8); experiment: 3′ end sequencing of TERC (oligoadenylation) in DKC1_A353V hESCs; type: cell-based
T1 construct: endogenous in cells; host or cells: DKC1_A353V mutant hESCs (H1; WA01), made by CRISPR/Cas9 editing
Procedure: (§1) Treatment of DKC1_A353V hESCs with RG7834 caused a >15-fold reduction in the 3′-end oligoadenylation of TERC, indicating efficient PAPD5 inhibition in these cells (FIG. 2A).
3′ end sequencing of TERC: Briefly, ˜100 ng of DNase-treated, rRNA-depleted, Antarctic phosphatase treated RNA was ligated with 40 pmol of barcoded appendix (2 reactions per sample) using T4 RNA Ligase I and 10 mM ATP. Enzymatic reaction was cleaned up using RNA clean and concentrator kit (Zymo). 4 μl of […] from each reaction (8 μl total RNA) was used for cDNA synthesis using a primer complementary to the appendix. The cDNA product was then used as template for 5′ RACE using TERC-specific barcoded primers and a universal primer. The RACE product was size-selected on a 1% agarose gel and fragments ˜100-300 bp were gel purified and amplified using Illumina sequencing primers. Libraries were multiplexed and sequenced on an Illumina NextSeq sequencer (mid-output setting and 1×150 cycle kit). Sequenced reads were filtered using both the TERC primer and the appendix barcode and reads with 100% sequence identify were used for downstream analysis. TERC reads with […] at the mature end (for e.g., UGCAA, UGCAAA, etc.) were quantified as oligoadenylated for analysis.

TERC = TERC quantification by qRT-PCR in DKC1_A353V hESCs; type: cell-based, Homo sapiens; conditions: for TERC levels: DKC1_A353V hESCs
Text: as §1
(§2) RNA extraction and Quantitative real-time PCR: Total RNA was isolated using Trizol (Invitrogen) in accordance with the manufacturer's instructions followed by Turbo DNA-free DNase (Invitrogen) treatment. RNA was converted into cDNA using Superscript III First Strand synthesis kit (Invitrogen) following manufacturer's instructions. Real-time PCR was performed using Evagreen master mix (Lambda Biotech, St. Louis, Mo.) on a StepOne Plus instrument DNase treatment (Thermo Fisher Scientific). For TERC analysis, Brilliant II 1-step qRT-PCR master mix (Agilent, Santa Clara, Calif.) was used following manufacturer's instructions. Reactions were performed in triplicates with 100 ng of RNA per reaction and used gene-specific (for/rev) primers were as follows: […]

TERT = TERT quantification by qRT-PCR in DKC1_A353V hESCs; type: cell-based, Homo sapiens; conditions: up to 30 days
Text: as §1, §2

DKC1_A353V hESCs [1] = experiment: Telomere length by telomere restriction fragment analysis in DKC1_A353V hESCs; type: cell-based, Homo sapiens; conditions: sustained treatment up to 3 months
Procedure: Telomere length analysis: Telomere length analysis were performed by Telomere Repeat Fragment (TRF) technique. Briefly, DNA was extracted using tail lysis buffer (10 mM Tris-HCl, pH 8.0, 100 mM NaCl, 10 mM EDTA, 0.5% SDS supplemented with 400 μg/ml Proteinase K) at 55° C. overnight. 10 μg of DNA was digested with Rsa1 and Hinf1 restriction enzymes (New England Biolabs, Ispwich, Mass.) overnight and 2.5 μg of product was resolved in a 0.75% agarose gel for 16 hr at 85V in TBE buffer. The gel was incubated with denaturing buffer (1.5M NaCl and 0.5M NaOH) for 45 min followed by neutralizing buffer (1.5M NaCl, 1M Tris-HCl at pH 7.4) for 1 hr. DNA was transferred to a nitrocellulose membrane by capillary action for 2 days in 10× saline-sodium citrate (3M NaCl, 0.3M sodium citrate dehydrate at pH 7.0). After cross-linking, the membrane was hybridized with a ^32P-labelled probe (CCCTAA) and exposed to Carestream BioMax MT film. Mean telomere length was analyzed using TeloTool with the corrected and nonlinear fit order 1 ladder fit options.

DKC1_A353V hESCs [2] = experiment: Toxicity in DKC1_A353V hESCs (NANOG qRT-PCR, EdU incorporation); type: cell-based, Homo sapiens; conditions: concentrations indicated, entire duration (60 days)
Procedure: FIG. 5. No detectable RG7834 toxicity in hESCs. (A) Representative immunoblot analysis of γH2AX in DKC1_A353V hESCs treated with different concentrations of RG7834 (indicated in the figure). Positive control: Etoposide 50 nM. Actin is shown as a loading control. (B) Quantification of NANOG by qRT-PCR in DKC1_A353V hESCs treated with DMSO or different concentrations of RG7834 (as indicated) for 60 days. (C) Flow cytometry analysis of EdU incorporation with DNA content (DAPI) in DKC1_A353V hESCs, treated with DMSO or 5 μM of RG7834 for 60 days. Quantification of active proliferating cells (EdU positive) is indicated. (D) MA plot for the analysis of RNA-sequencing experiments between DMSO or RG7834 treated DKC1_A353V hESCs. No significant differences in gene expression were found.
(§3) The present inventors investigated if treatment with RG7834 was sufficient to reduce DNA damage signaling arising from eroded telomeres, a hallmark of DC.

DKC1_A353V hESCs [3] = experiment: Whole-genome RNA-sequencing of DKC1_A353V hESCs; type: cell-based, Homo sapiens; conditions: 1 μM RG7834 vs DMSO
Procedure: as §3
RNA-seq of transcriptome from DMSO or RG7834 treated DKC1_A353V cells: RNA was extracted from DMSO or RG7834 (1 μM) treated DKC1 mutant cells using Trizol as per manufacturer's instructions and contaminating DNA was removed using TURBO DNase. 1 μg of total RNA in triplicate from each condition was depleted of ribosomal RNA using Ribocop rRNA depletion kit V3 (Lexogen). 50 ng of recovered total RNA was used for strand-specific library preparation using the Rapid Directional RNA-seq kit 2.0 (Perkin Elmer) as per manufacturer's protocol. Prepared libraries were sequenced on an Illumina HiSeq using 2×150 paired end sequencing kit. Demultiplexed reads were checked for quality using the FastQC tool and subjected to adapter trimming using Trimmomatic. Trimmed reads were aligned to the hg38 p13 version 99 human genome release and annotation obtained from ENSEMBL using the STAR alignment software. Aligned files were sorted according to chromosomal coordinate and compressed to BAM files. HTSeq was used to count the number of reads for each gene from BAM files. Read counts were used for downstream analysis for changes in gene expression using DESeq2. […]

T1 sequence (Q8NDF8 whole entry): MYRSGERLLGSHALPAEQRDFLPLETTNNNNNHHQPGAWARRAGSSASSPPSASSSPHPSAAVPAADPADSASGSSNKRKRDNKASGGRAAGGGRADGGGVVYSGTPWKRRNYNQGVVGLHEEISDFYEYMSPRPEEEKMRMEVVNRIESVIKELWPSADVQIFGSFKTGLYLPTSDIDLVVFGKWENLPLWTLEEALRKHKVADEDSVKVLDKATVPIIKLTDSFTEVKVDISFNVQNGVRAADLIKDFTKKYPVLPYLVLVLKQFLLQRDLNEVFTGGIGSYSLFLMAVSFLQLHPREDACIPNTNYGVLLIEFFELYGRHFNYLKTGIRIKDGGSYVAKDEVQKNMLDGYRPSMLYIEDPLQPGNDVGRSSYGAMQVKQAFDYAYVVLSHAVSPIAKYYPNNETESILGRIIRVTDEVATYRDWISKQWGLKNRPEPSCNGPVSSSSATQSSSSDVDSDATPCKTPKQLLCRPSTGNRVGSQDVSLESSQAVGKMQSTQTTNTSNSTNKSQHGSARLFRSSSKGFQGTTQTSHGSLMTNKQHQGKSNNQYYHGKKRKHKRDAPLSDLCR

For `COCCCOc1cc2c(cc1OC)-c1cc(=O)c(C(=O)O)cn1[C@H](C(C)C)C2` [RG7834], the “toxicity in RG7834-treated cells” value (HeLa cells) was “No cellular toxicity was observed”, the “reduction in the 3′-end oligoadenylation of TERC” value (PAPD5) was greater than 15 fold and the TERC levels (TERC; 4 days of treatment) was “significant increase in TERC levels”. For the same compound, the TERC levels (TERC; continuous treatment up to 30 days, different concentrations) was “sustained up to 30 days”, the “TERC levels in the stem cell model of DC” value (TERC; stem cells carrying disease-causing DKC1 mutations) was “partially rescued TERC levels” and the “levels of telomerase reverse transcriptase (TERT)” value (TERT) was “remained unchanged”. The “telomere maintenance (telomere length)” value (DKC1_A353V hESCs [1]) was “improved telomere maintenance”, the “toxicity associated with RG7834 treatment” value (DKC1_A353V hESCs [2]) was “no toxicity associated with RG7834 treatment was detected” and the “changes in gene expression” value (DKC1_A353V hESCs [3]) was “did not lead to significant changes in gene expression”.
